Results: patent publication US20080004306A1, “Compositions and methods for modulating gated ion channels” (PainCeptor Pharma Corporation, priority 2006, published 2008)

How the values were obtained:
hASIC1a [1] = molecular target: T1, hASIC1a (Homo sapiens, UniProt P78348); experiment: Two-electrode voltage clamp in Xenopus laevis oocytes expressing gated ion channels (Xo, Example 3); format: cell-based; details: for inhibition at 50 µM: read-out: % inh. at 50 μM (Xo)
T1 construct: expressed in transfected cells; host or cells: Xenopus laevis oocytes, nuclear microinjection of an expression vector such as pCDNA3
T1 sequence (P78348 1-528): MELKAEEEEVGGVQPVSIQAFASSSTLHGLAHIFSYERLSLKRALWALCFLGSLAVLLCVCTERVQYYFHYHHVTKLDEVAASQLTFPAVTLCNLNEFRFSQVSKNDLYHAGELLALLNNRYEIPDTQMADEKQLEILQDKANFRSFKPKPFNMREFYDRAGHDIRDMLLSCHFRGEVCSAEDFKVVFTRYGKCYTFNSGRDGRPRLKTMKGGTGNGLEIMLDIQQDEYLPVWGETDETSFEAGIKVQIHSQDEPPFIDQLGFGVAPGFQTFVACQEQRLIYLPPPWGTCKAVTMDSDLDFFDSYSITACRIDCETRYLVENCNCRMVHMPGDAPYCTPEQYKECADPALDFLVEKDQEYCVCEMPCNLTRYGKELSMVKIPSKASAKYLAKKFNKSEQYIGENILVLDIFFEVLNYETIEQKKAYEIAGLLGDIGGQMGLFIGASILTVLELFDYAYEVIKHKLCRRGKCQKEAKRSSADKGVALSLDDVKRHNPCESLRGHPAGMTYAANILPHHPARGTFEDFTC
Experimental: Two-electrode voltage clamp electrophysiological assays in Xenopus laevis oocytes expressing gated ion channels are performed as follows:
Oocytes are surgically removed from adult Xenopus laevis and treated for 2 h at room temperature with 1 mg/ml type I collagenase (Sigma) in Barth's solution under mild agitation. Selected oocytes at stage IV-V are defolliculated manually before nuclear microinjection of 2.5-5 ng of a suitable expression vector, such as pCDNA3, comprising the nucleotide sequence encoding a gated ion channel subunit protein. In such an experiment, the oocytes express homomultimeric proton-gated ion channels on their surface. In an alternate experiment, one, two, three or more vectors comprising the coding sequences for distinct gated ion channel subunits are co-injected in the oocyte nuclei. In the latter case, oocytes express heteromultimeric proton-gated ion channels. […] Once impaled with the microelectrodes, oocytes are continuously superfused at 10-12 ml/min with a modified Ringer's solution containing 97 mM NaCl, 2 mM KCl, 1.8 mM CaCl2, and 10 mM HEPES brought to pH 7.4 with NaOH (Control Ringer). Test Ringer solution is prepared by replacing HEPES with MES and adjusting the pH to the desired acidic value. Compounds of the present invention are prepared in both the Control and Test Ringer solutions and applied to oocytes at room temperature through a computer-controlled switching valve system. […] Similarly, recordings can also be acquired in an automated multichannel oocytes system as the OpusExpress™ (Molecular Devices, Sunnyvale, USA).

hASIC1a [2] = molecular target: T1, hASIC1a; experiment: Whole cell patch clamp in HEK293 cells transfected with hASIC1a (Example 2); format: cell-based; details: six point dose-response, whole cell patch clamp (FIG. 1B), read-out: IC50, inhibition of acid-induced hASIC1a activity
Experimental: Another example of an in vitro assessment method consists of using mammalian heterologous expression systems, which are known to the skilled in the art, and include a variety of mammalian cell lines such as COS, HEK, e.g., HEK293and/or CHO, cells. Cell lines are transfected with gated ion channel(s) and used to perform electrophysiology as follows:
All experiments are performed at room temperature (20-25° C.) in voltage clamp using conventional whole cell patch clamp methods (Neher, E., et al. (1978) Pfluegers Arch 375:219-228).
The amplifier used is the EPC-9 (HEKA-electronics, Lambrect, Germany) run by a Macintosh G3 computer via an ITC-16 interface. Experimental conditions are set with the Pulse-software accompanying the amplifier. […]
Coverslips with the cells are transferred to a 15 μl experimental chamber mounted on the stage of an inverted microscope (IMT-2, Olympus) supplied with Nomarski optics. […] The cells are held at a holding voltage of −60 mV and at the start of each experiment the current is continuously measured for 45 s to ensure a stable baseline. […] Current amplitudes are measured at the peak of the responses, and effect of the compounds is calculated as the amplitude at compound equilibrium divided by the amplitude of the current evoked by the pulse just before the compound is included. […]

[3] = system: thermal hyperalgesia from carrageenan-induced paw inflammation; experiment: Carrageenan model, thermal hyperalgesia (Hargreaves' assay); format: in vivo, rat
Experimental: Acute inflammatory hyperalgesia is induced in rats by unilateral injection of […] of a 3% solution of 1-carrageenan into the plantar surface of the left hind paw 2-4 h prior to testing. Thermal nociceptive thresholds are determined according to the method described elsewhere (Hargreaves et al., 1988). Briefly, through the glass surface, a radiant heat source (8 V, 50 W projector bulb) is focused onto the plantar surface of the hind paw. The rat's paw-withdrawal latency to this stimulus is recorded to the nearest 0.1 s. Each latency score is an average of three trials, which are separated by at least 5 min. In all rats, both the injured and uninjured hind paws are similarly tested, allowing direct comparisons between inflamed and non-inflamed paws.

[4] = Xenopus laevis oocytes, two-electrode voltage clamp
[5] = Xenopus laevis oocytes, two-electrode voltage clamp, Table 1, read-out: IC50 (Xo)

Row | Compound | inhibition at 50 µM (hASIC1a [1]; [4]) [%] | IC50 (hASIC1a [1]; [5]) [µM] | other results
1 | CCN1CCc2c(-c3ccccc3)cc3c(c2C1)NC(=O)C3=CNCCO [Compound 4] | < 25 |  | 
2 | CCN1CCc2c(-c3ccccc3)cc3c(N)n[nH]c3c2C1 [Compound 6] |  | > 50 | 
3 | CCN1CCc2c(-c3cc(F)ccc3OC)cc3cc[nH]c3c2C1 [Compound 7] |  | > 50 | 
4 | CCN1CCc2c(-c3cc(F)ccc3OC)cc3c(C=O)c[nH]c3c2C1 [Compound 8] |  | > 50 | 
5 | CCN1CCc2c(-c3ccccc3)cc3cc[nH]c3c2C1 [Compound 9] |  | > 50 | 
6 | CCN1CCc2c(-c3ccccc3)cc3c(C=O)c[nH]c3c2C1 [Compound 10] |  | > 50 | 
7 | CCN1CCc2c(-c3ccccc3)cc3c(C(N)=O)c[nH]c3c2C1 [Compound 11] |  | > 50 | 

The next lines start with results.

Row | inhibition at 50 µM (hASIC1a [1]; [4]) [%] | Compound | IC50 (hASIC1a [1]; [5]) [µM] | other results
8 | 25 to 45 | CCN1CCc2c(-c3ccccc3)cc3c(c2C1)NC(=O)C3SC (stereo not drawn) [Compound 1] |  | 
9 | < 25 | CCN1CCc2c(-c3ccccc3)cc3c(c2C1)NC(=O)C3 [Compound 2] |  | 
10 | < 25 | CCN1CCc2c(-c3ccccc3)cc3c(c2C1)NC(=O)C3=CNC [Compound 3] |  | 
11 | > 50 | CCN1CCc2c(-c3ccccc3)cc3c(c2C1)NC(=O)C3=CN [Compound 5] |  | IC50 (hASIC1a [1]; three point dose-response, acid-induced hASIC1a currents in Xenopus laevis oocytes (FIG. 1A), read-out: IC50, half maximal inhibition of the acid-evoked response in hASIC1a): 10 µM; IC50 (hASIC1a [2]): 15 µM; effect on thermal hyperalgesia ([3]; 75 mg/kg s.c., given 30 min prior to carrageenan, 2-4 hours post-carrageenan, versus control paw level): completely reversed; ED50 ([3]; Rattus norvegicus, sc, 30 min prior to carrageenan, tested 2, 3 and 4 h post carrageenan): ~50 mg/kg
